Measured values as given in publication PMC4950319, “Kinetic and structural characterization of amyloid‐β peptide hydrolysis by human angiotensin‐1‐converting enzyme” (The Febs Journal, 2016).
Where “and” joins values, the source holds several entries; their conditions need not be identical. Equal values may be shown once. Values belong to the molecule of their own block, whether it stands above or below them. Where no end group is shown, it is not given here. [ ]: non-standard residue; d: D form. The star is where a group is joined. Tyr(3-NO2) = N[C@@H](Cc1ccc(O)c([N+](=O)[O-])c1)C(=O)O; EDDnp = O=[N+]([O-])c1ccc(NCCN*)c([N+](=O)[O-])c1; 2Abz = Nc1ccccc1C(=O)O; Cbz = O=C(OCc1ccccc1)*

How the values were obtained:
ACE variants = experiment: Cleavage‐site analysis by MALDI‐TOF MS, kinetic assay conditions; assay type: biochemical, human; details: MALDI‐TOF MS of products within kinetic assay conditions; Aβ(1–16): all ACE variants except Cdom; Aβ(4–10) peptides: Cdom and CC‐sACE not analysed
Protocol: The mass spectrometry was analysed at the Centre for Proteomic and Genomic Research (Cape Town, South Africa). Briefly, the collected peptides were spotted onto a 10 mg·mL^−1 α‐cyano‐4‐hydroxycinnamic acid matrix (Fluka, USA) in 80% ACN, 0.2% TFA for a final concentration of 5 mg·mL^−1 matrix in 40% ACN, 0.1% TFA, 10 mM NH4H2PO4. Mass spectrometry was performed with a 4800 MALDI‐TOF/TOF (Applied Biosytems) with all spectra recorded in positive reflector mode. Spectra were generated with 400 laser shots/spectrum at a laser intensity of 3800 (arbitrary units) with a grid voltage of 16 kV.

CC‐sACE = experiment: Aβ(4–10)Q hydrolysis by CC‐sACE, fluorogenic assay; assay type: biochemical, human; details: Hepes pH 7.5, 37 °C, 45 min, fluorescence
Text: (§1) Fluorogenic substrates designed around the established N‐terminal Asp7‐Ser8 cleavage site of the full‐length Aβ(1–42) were used to develop a higher throughput assay. There are two variations of the short fluorogenic peptides: Aβ(4–10)Q (Abz‐FRHDSG(Q)‐EDDnp) which has an N‐terminal Abz donor and a C‐terminal EDDnp quencher group attached to an additional Gln residue. The second peptide, Aβ(4–10)Y (Abz‐FRHDSG‐(NT)) has a different quencher molecule, NT, which substitutes for the naturally occurring Tyr residue.
Hydrolysis of the fluorogenic peptide Abz‐FRHDSG(Q)‐EDDnp (Aβ(4–10)Q, obtained from A. Carmona, Universidade Federal de São Paulo, Brazil) was performed in Hepes buffer (50 mM Hepes pH 7.5, 100 mM NaCl, 10 μM ZnSO4 buffer) with 150 μL enzyme (at final concentrations within 10% hydrolysis of total substrate; see Table 2) and equal volume of substrate ranging from 0 to 30 μM. […] The baseline fluorescence was at time zero and then the substrate was incubated at 37 °C and fluorescence read at the 45 min time point on a Cary Eclipse spectrofluorimeter (Varian Inc.) at λex = 320 nm and λem = 420 nm. Again, kinetic constants were calculated using the Michaelis–Menten method with […] […] The detected fluorescence was converted to picamoles product formed through the slope of a calibration curve of Abz‐Gly. […]
Statistical analysis of the data was determined by Student's t test. […]

sACE [1] = target: T1, sACE (Homo sapiens, UniProt P12821); experiment: Aβ(4–10)Q hydrolysis by sACE, fluorogenic assay; assay type: biochemical; details: fluorescence λex 320 nm, λem 420 nm, 50 mM Hepes pH 7.5, 100 mM NaCl, 10 μM ZnSO4, substrate 0 to 30 μM, 45 min, 37 °C, enzyme 1.50 pmol, n = 3
T1 construct: made in house; host or cells: CHO cells; purified from cell lysate
Text: as §1
(§2) Hydrolysis of the fluorogenic peptide Abz‐FRHDSG(Q)‐EDDnp (Aβ(4–10)Q, obtained from A. Carmona, Universidade Federal de São Paulo, Brazil) was performed in Hepes buffer (50 mM Hepes pH 7.5, 100 mM NaCl, 10 μM ZnSO4 buffer) with 150 μL enzyme (at final concentrations within 10% hydrolysis of total substrate; see Table 2) and equal volume of substrate ranging from 0 to 30 μM. The assay is a modified form of the continuous assay 7 where the assay is set up on ice in triplicate in a 96‐well plate. The baseline fluorescence was at time zero and then the substrate was incubated at 37 °C and fluorescence read at the 45 min time point on a Cary Eclipse spectrofluorimeter (Varian Inc.) at λex = 320 nm and λem = 420 nm. Again, kinetic constants were calculated using the Michaelis–Menten method with […] PRISM software (v4.01, GraphPad Prism®). The detected fluorescence was converted to picamoles product formed through the slope of a calibration curve of Abz‐Gly. A correction curve was also applied to correct the data for the inner filter effect 70.
(§3) Statistical analysis of the data was determined by Student's t test. Differences with P < 0.05 were considered statistically significant. Fractional error was calculated for the k cat/K m ratio with the following equation: ΔZ=ZΔa/a^2+Δb/b^2 where Z represents the mean k cat/K m and ΔZ represents the fractional error. The Δa represents the SEM of the mean k cat (a). Similarly, Δb represents the SEM of the mean K m (b).

C‐sACE = target: T2, C‐sACE (Homo sapiens, UniProt P12821, H390K/H394K); experiment: Aβ(4–10)Q hydrolysis by C‐sACE, fluorogenic assay; assay type: biochemical; details: fluorescence λex 320 nm, λem 420 nm, 50 mM Hepes pH 7.5, 100 mM NaCl, 10 μM ZnSO4, substrate 0 to 30 μM, 45 min, 37 °C, enzyme 1.50 pmol, n = 3
T2 construct: Both constructs have the complete signal, transmembrane and stalk region corresponding to full‐length sACE; made in house; host or cells: CHO cells; purified from cell lysate
Text: as §1, §2, §3

[2] = target: T3, Ndom (soluble form of the N‐domain of sACE) (Homo sapiens, UniProt P12821); experiment: Aβ(4–10)Q hydrolysis by Ndom, fluorogenic assay; assay type: biochemical; details: fluorescence λex 320 nm, λem 420 nm, 50 mM Hepes pH 7.5, 100 mM NaCl, 10 μM ZnSO4, substrate 0 to 30 μM, 45 min, 37 °C, enzyme 0.60 pmol, n = 3
T3 construct: made in house; host or cells: CHO cells
Text: as §1, §2, §3

sACE [3] = target: T1, sACE; experiment: Interdomain cooperativity in hydrolysis of Aβ substrates; assay type: biochemical; details: two domains of sACE, truncated and full‐length constructs compared
Protocol: Mixtures were separated on a Poroshell 120 EC‐18 column with a 2.7 μm pore size. The reaction consists of 25 μL substrate incubated with 25 μL enzyme for 15 min at 37 °C and was stopped with the addition of 10 μL of 0.25% trifluoroacetic acid (TFA). The total reaction (60 μL) was cleared of contaminants on a spin column (GHP Nanosep® MF Centrifugal Device 0.45 μm pore size) and run on the HPLC. Kinetic parameters were determined through the fitting of initial rates to the Michaelis–Menten equation with […] PRISM software (v 4.01, GraphPad Prism®).
The reaction was incubated for 15 min at 37 °C and stopped with the addition of 10 μL 0.25% TFA to make up a total volume of 60 μL. The reactions were performed in triplicate and 50 μL injections were analysed via HPLC (Agilent Technologies) across a gradient of 0.1% TFA and 2% ACN in water to 0.1% TFA, 95% ACN. A calibration curve was set up to convert the product peak area to picomoles product formed, through the complete hydrolysis of the substrate with the N‐domain. […] Kinetic constants were calculated using the Michaelis–Menten method using […] […]
The assay is a modified form of the continuous assay 7 where the assay is set up on ice in triplicate in a 96‐well plate. The baseline fluorescence was at time zero and then the substrate was incubated at 37 °C and fluorescence read at the 45 min time point on a Cary Eclipse spectrofluorimeter (Varian Inc.) at λex = 320 nm and λem = 420 nm. Again, kinetic constants were calculated using the Michaelis–Menten method with […] […] The detected fluorescence was converted to picamoles product formed through the slope of a calibration curve of Abz‐Gly. […]
An alternative fluorogenic peptide, Abz‐FRHDSG‐(NT) (BIOPEP™ South Africa) was assayed, with 100 μL enzyme and 100 μL substrate (at a final enzyme concentration within 10% hydrolysis of total substrate; see Table 3) as above, in 96‐well plates. The samples were read at the 5 min time point on a Cary Eclipse spectrofluorimeter (Varian Inc.) at λex = 320 nm and λem = 420 nm. Kinetic constants, inner filter effect and standard curves were calculated as above.

N‐sACE = target: T4, N‐sACE (Homo sapiens, UniProt P12821, H988K/H992K); experiment: Aβ(4–10)Q hydrolysis by N‐sACE, fluorogenic assay; assay type: biochemical; details: fluorescence λex 320 nm, λem 420 nm, 50 mM Hepes pH 7.5, 100 mM NaCl, 10 μM ZnSO4, substrate 0 to 30 μM, 45 min, 37 °C, enzyme 9.00 pmol, n = 3
T4 construct: Both constructs have the complete signal, transmembrane and stalk region corresponding to full‐length sACE; made in house; host or cells: CHO cells; purified from cell lysate
Text: as §1, §2, §3

sACE (human ACE) = details: cited from earlier work
Text: Due to the C‐domain's poorer hydrolysis of Aβ we can infer that the C‐domain appears ...

ACE = details: full‐length Aβ(1–42); cited from earlier work
Text: This type of cleavage has been observed in previous studies with other amyloid peptides 23, 24 and was also observed in the crystal structures of the N‐domain in complex with all the Aβ fragments tested. Based on the MS analysis of th ...

[4] = target: full-length domain knockout variant of human sACE with only the N-domain active (N-sACE) (human) (UniProt P12821)
[5] = target: full-length domain knockout variant of human sACE with only the C-domain active (C-sACE) (human) (UniProt P12821)
[6] = target: full-length domain knockout variant of human sACE with only the N-domain active (N-sACE) (human) (UniProt P12821); remark: listed apart in the source
[7] = target: full-length domain knockout variant of human sACE with only the C-domain active (C-sACE) (human) (UniProt P12821); remark: listed apart in the source
[8] = mean ± fractional error of the ratio

T3 sequence (P12821 30-658): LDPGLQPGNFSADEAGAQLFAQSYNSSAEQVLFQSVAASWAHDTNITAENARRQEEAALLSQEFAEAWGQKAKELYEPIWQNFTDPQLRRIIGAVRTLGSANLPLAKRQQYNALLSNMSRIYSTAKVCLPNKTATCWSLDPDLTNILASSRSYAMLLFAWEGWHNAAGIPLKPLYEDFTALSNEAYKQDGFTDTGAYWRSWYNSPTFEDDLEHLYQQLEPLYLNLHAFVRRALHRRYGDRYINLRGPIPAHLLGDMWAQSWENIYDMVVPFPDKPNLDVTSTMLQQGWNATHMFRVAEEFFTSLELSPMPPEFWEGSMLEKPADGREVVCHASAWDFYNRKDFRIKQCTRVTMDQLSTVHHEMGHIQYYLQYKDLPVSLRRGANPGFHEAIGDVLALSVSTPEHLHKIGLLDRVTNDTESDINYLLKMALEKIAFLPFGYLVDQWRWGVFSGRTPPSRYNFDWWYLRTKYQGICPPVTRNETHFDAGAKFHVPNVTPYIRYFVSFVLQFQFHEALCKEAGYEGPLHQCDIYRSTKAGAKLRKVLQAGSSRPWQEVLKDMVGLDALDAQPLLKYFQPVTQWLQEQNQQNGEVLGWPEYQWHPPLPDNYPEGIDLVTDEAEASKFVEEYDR
T4 sequence (P12821 30-1306 H988K/H992K): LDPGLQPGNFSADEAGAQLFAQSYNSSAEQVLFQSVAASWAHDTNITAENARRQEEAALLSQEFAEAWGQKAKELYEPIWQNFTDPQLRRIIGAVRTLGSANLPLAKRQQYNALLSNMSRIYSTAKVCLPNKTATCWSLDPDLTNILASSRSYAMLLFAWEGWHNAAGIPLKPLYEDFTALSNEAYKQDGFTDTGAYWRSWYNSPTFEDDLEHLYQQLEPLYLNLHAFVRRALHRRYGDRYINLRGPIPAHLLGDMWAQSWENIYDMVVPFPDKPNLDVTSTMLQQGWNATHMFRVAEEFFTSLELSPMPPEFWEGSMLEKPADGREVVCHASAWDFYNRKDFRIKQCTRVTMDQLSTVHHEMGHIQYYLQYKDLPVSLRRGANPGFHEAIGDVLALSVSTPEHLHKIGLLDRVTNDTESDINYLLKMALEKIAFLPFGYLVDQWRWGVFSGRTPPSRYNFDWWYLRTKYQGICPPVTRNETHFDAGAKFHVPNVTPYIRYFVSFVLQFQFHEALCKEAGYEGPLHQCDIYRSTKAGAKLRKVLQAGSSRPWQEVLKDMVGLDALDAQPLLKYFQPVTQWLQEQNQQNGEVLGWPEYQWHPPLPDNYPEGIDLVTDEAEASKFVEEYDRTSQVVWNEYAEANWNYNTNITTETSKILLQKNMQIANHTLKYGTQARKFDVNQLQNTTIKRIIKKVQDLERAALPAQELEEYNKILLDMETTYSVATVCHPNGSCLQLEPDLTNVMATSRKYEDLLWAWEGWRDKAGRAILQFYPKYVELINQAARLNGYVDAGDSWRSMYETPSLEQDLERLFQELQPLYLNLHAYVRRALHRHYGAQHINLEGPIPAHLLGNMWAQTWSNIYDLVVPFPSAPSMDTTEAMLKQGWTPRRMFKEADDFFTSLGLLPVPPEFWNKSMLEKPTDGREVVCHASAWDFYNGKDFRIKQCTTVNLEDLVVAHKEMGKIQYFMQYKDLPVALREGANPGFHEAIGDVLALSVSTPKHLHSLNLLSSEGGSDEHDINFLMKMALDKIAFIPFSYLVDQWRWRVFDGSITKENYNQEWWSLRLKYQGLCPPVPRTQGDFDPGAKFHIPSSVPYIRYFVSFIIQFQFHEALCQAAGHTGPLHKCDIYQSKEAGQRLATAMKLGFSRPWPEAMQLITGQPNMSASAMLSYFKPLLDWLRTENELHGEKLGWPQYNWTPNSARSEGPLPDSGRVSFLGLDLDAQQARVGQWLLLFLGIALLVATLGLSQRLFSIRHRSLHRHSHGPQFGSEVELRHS
T2 sequence (P12821 30-1306 H390K/H394K): as the sequence (P12821 30-1306 H988K/H992K) above, with H361K, H365K, K959H, K963H counted along it
T1 sequence (P12821 30-1306): as the sequence (P12821 30-1306 H988K/H992K) above, with K959H, K963H counted along it
Sequence of full-length domain knockout variant of human sACE with only the N-domain active (N-sACE) (human) (P12821 other isoform, or with tags, fused parts or gaps, change not shown): as the sequence (P12821 30-1306 H988K/H992K) above
Sequence of full-length domain knockout variant of human sACE with only the C-domain active (C-sACE) (human) (P12821 other isoform, or with tags, fused parts or gaps, change not shown): as the sequence (P12821 30-1306 H988K/H992K) above, with H361K, H365K, K959H, K963H counted along it
Sequence of CC‐sACE (P12821 643-1222 limits assumed): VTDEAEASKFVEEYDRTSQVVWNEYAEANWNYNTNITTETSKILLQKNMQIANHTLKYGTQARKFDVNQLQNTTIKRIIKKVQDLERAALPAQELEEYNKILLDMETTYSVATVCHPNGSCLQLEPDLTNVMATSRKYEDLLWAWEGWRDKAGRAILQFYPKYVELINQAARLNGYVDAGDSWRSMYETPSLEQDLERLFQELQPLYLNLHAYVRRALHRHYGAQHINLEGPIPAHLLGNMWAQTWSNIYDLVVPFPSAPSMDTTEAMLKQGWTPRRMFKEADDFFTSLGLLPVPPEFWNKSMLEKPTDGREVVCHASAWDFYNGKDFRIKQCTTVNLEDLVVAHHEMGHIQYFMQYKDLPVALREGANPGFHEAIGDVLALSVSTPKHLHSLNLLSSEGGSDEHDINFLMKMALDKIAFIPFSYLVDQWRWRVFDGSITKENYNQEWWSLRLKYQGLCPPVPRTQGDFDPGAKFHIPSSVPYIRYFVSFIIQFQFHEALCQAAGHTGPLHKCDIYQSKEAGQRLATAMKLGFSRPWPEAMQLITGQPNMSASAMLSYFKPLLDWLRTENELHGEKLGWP

Molecule: Abz‐FRHDSG(Q)‐EDDnp [Aβ(4–10)Q, fluorogenic Aβ(4–10) peptide, Abz donor, EDDnp quencher attached to additional Gln]
cleavage site (bond) (ACE variants): Asp7‐Ser8
hydrolysis by CC‐sACE (CC‐sACE): almost no hydrolysis
K m (sACE [1]; mean ± SEM): 22.90 ± 3.45 µM
V max (sACE [1]; mean ± SEM): 0.09 ± 0.01
k cat (sACE [1]; mean ± SEM): 0.06 ± 0.01 s⁻¹
k cat/K m (sACE [1]; [8]): 0.03 ± 0.01 M^−1·s^−1 × 10^5
K m (C‐sACE; mean ± SEM): 11.50 ± 3.03 µM
V max (C‐sACE; mean ± SEM): 0.12 ± 0.01
k cat (C‐sACE; mean ± SEM): 0.08 ± 0.01 s⁻¹
k cat/K m (C‐sACE; [8]): 0.08 ± 0.02 M^−1·s^−1 × 10^5
K m ([2]; mean ± SEM): 22.20 ± 3.23 µM
V max ([2]; mean ± SEM): 0.29 ± 0.02
k cat ([2]; mean ± SEM): 0.48 ± 0.04 s⁻¹
k cat/K m [2, 8]: 0.22 M^−1·s^−1 × 10^5 and 0.22 ± 0.04 M^−1·s^−1 × 10^5
interdomain cooperativity (sACE [3]): This is also true for the Aβ(4–10)Q substrate, although to a much lesser extent
K m (N‐sACE; mean ± SEM): 42.43 ± 3.92 µM
V max (N‐sACE; mean ± SEM): 3.23 ± 0.20
k cat (N‐sACE; mean ± SEM): 0.36 ± 0.02 s⁻¹
k cat/K m (N‐sACE; [8]): 0.09 M^−1·s^−1 × 10^5 and 0.09 ± 0.01 M^−1·s^−1 × 10^5

Molecule: Cbz-Phe-His-Leu [ACE substrate]
effect of the presence of the N‐domain on hydrolysis (sACE (human ACE)): regulatory effects

Molecule: Aβ(1–42): full‐length Aβ(1–42)
cleavage sites (ACE): multiple cleavage sites

Molecule: bradykinin (RPPGFSPFR; Bradykinin; UniProt P01042 381-389, looked up) [vasodilatory peptide, physiological substrate]
degree of cooperativity between domains (sACE (human ACE); compared with many synthetic peptides): considerably less than many synthetic peptides

Km of hydrolysis of Aβ(4–10)Y (fluorescence assay, read at 5 min) [4]: 8.56 µM
Km of hydrolysis of Aβ(4–10)Y (fluorescence assay, read at 5 min) [5]: 38.1 µM
Molecule: [2Abz]FRHDSG[Tyr(3-NO2)] [Aβ(4–10)Y (Abz-FRHDSG-(NT))]

Km of hydrolysis of Aβ(4–10)Q (fluorescence assay, 45 min, 37 °C, 50 mM Hepes pH 7.5, 100 mM NaCl, 10 μM ZnSO4) [6]: 42.4 μM
Km of hydrolysis of Aβ(4–10)Q (fluorescence assay, 45 min, 37 °C, 50 mM Hepes pH 7.5, 100 mM NaCl, 10 μM ZnSO4) [7]: 11.5 μM
Molecule: [2Abz]FRHDSGQ-EDDnp [Aβ(4–10)Q (Abz-FRHDSG(Q)-EDDnp)]
